The structures appear in SMILES notation.

The text below walks through data of the supplement of paper PMC10627819.

Common to all, as to test: Bliss interaction score (quartile over a dose matrix) (fitness difference); higher = more antagonism (negative = synergy)
The subject of one experiment is B. subtilis 168. The method, boiled down:
(§1)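 The Bliss score takes observed fitness and subtracts the expected fitness, calculated as a product of single-drug fitness values. Those single-drug values were inferred from the combination data. Fitness is OD595 at entry into stationary phase divided by the plate's robust no-drug mean, capped at 1, and the score is summarised by quartiles across technical, biological and donor/recipient replicates.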

Another experiment deals with S. aureus Newman. The method, boiled down: as §1
A further experiment concerns S. pneumoniae D39V. The method in brief: as §1
A further experiment relates to S. aureus DSM 20231. The method, boiled down: as §1
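Note: first quartile when negative (synergy) and third quartile when positive (antagonism).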

Turning to `CC(=O)O[C@H]1C[C@@]2(C)[C@@H](C[C@@H](O)[C@H]3[C@@]4(C)CC[C@@H](O)[C@@H](C)[C@@H]4CC[C@@]32C)/C1=C(\CCC=C(C)C)C(=O)O` [Fusidic acid] + C[C@@H](O)[C@H]1C(=O)N2C(C(=O)O)=C(SCCNC=N)C[C@H]12 [Imipenem], the Bliss interaction score in the experiment on B. subtilis 168 turned out to be 0.138; in the experiment on S. aureus Newman, 0.0214; with S. pneumoniae D39V it was 0.0477; with S. aureus DSM 20231, 0.0208.
For `CC(=O)O[C@H]1C[C@@]2(C)[C@@H](C[C@@H](O)[C@H]3[C@@]4(C)CC[C@@H](O)[C@@H](C)[C@@H]4CC[C@@]32C)/C1=C(\CCC=C(C)C)C(=O)O` [Fusidic acid] + C[C@H]1COc2c(N3CCN(C)CC3)c(F)cc3c(=O)c(C(=O)O)cn1c23 [Levofloxacin], the Bliss interaction score in the experiment with B. subtilis 168 worked out at 0.034; in the experiment with S. aureus Newman, 0.0554; with S. pneumoniae D39V, 0.119; in the experiment on S. aureus DSM 20231 it was 0.0375.
For the molecule `CC(=O)O[C@H]1C[C@@]2(C)[C@@H](C[C@@H](O)[C@H]3[C@@]4(C)CC[C@@H](O)[C@@H](C)[C@@H]4CC[C@@]32C)/C1=C(\CCC=C(C)C)C(=O)O` [Fusidic acid] + C[n+]1ccc(-c2cc[n+](C)cc2)cc1 [Paraquat], the Bliss interaction score amounted to 0.0317 with B. subtilis 168, 0.0284 with S. aureus Newman, 0.0439 with S. pneumoniae D39V and 0.0328 in the experiment with S. aureus DSM 20231.
As for `CC(=O)O[C@H]1C[C@@]2(C)[C@@H](C[C@@H](O)[C@H]3[C@@]4(C)CC[C@@H](O)[C@@H](C)[C@@H]4CC[C@@]32C)/C1=C(\CCC=C(C)C)C(=O)O` [Fusidic acid] + Cc1cc(NS(=O)(=O)c2ccc(N)cc2)no1 [Sulfamethoxazol], the Bliss interaction score in the experiment with B. subtilis 168 was 0.0933; in the experiment with S. aureus Newman, -0.026; in the experiment on S. pneumoniae D39V, 0.0975; in the experiment on S. aureus DSM 20231, -0.0234.
Consider `CC(=O)O[C@H]1C[C@@]2(C)[C@@H](C[C@@H](O)[C@H]3[C@@]4(C)CC[C@@H](O)[C@@H](C)[C@@H]4CC[C@@]32C)/C1=C(\CCC=C(C)C)C(=O)O` [Fusidic acid] + Cc1ncc([N+](=O)[O-])n1CCO [Metronidazole], for which the Bliss interaction score in the experiment on B. subtilis 168 is 0.0703; in the experiment on S. aureus Newman it was -0.0202; in the experiment with S. pneumoniae D39V it was 0.133; with S. aureus DSM 20231, -0.0408.
As to `CC(=O)O[C@H]1C[C@@]2(C)[C@@H](C[C@@H](O)[C@H]3[C@@]4(C)CC[C@@H](O)[C@@H](C)[C@@H]4CC[C@@]32C)/C1=C(\CCC=C(C)C)C(=O)O` [Fusidic acid] + Cc1onc(-c2ccccc2)c1C(=O)N[C@@H]1C(=O)N2[C@@H]1SC(C)(C)[C@@H]2C(=O)O [Oxacillin], the Bliss interaction score came to 0.0607 with B. subtilis 168, 0.0784 with S. aureus Newman, 0.152 in the experiment with S. pneumoniae D39V and 0.044 in the experiment on S. aureus DSM 20231.
Regarding `CC(=O)O[C@H]1C[C@@]2(C)[C@@H](C[C@@H](O)[C@H]3[C@@]4(C)CC[C@@H](O)[C@@H](C)[C@@H]4CC[C@@]32C)/C1=C(\CCC=C(C)C)C(=O)O` [Fusidic acid] + Clc1ccc(COC(Cn2ccnc2)c2ccc(Cl)cc2Cl)c(Cl)c1 [Miconazole], the Bliss interaction score in the experiment on B. subtilis 168 is -0.0605; in the experiment on S. aureus Newman, -0.0399; in the experiment with S. pneumoniae D39V, -0.117; with S. aureus DSM 20231, 0.0483.
The like results for `CC(=O)O[C@H]1C[C@@]2(C)[C@@H](C[C@@H](O)[C@H]3[C@@]4(C)CC[C@@H](O)[C@@H](C)[C@@H]4CC[C@@]32C)/C1=C(\CCC=C(C)C)C(=O)O` [Fusidic acid] + Cn1nnc(-c2ccc(-c3ccc(N4C[C@H](CO)OC4=O)cc3F)cn2)n1 [Tedizolid] were, in that order, -0.131, -0.048, -0.0933 and -0.0507.
Regarding `CC(=O)O[C@H]1C[C@@]2(C)[C@@H](C[C@@H](O)[C@H]3[C@@]4(C)CC[C@@H](O)[C@@H](C)[C@@H]4CC[C@@]32C)/C1=C(\CCC=C(C)C)C(=O)O` [Fusidic acid] + O=C1CN(/N=C/c2ccc([N+](=O)[O-])o2)C(=O)N1 [Nitrofurantoin], the Bliss interaction score in the experiment with B. subtilis 168 was -0.0345; in the experiment on S. aureus Newman, -0.0292; with S. pneumoniae D39V it was -0.186; in the experiment on S. aureus DSM 20231 it was -0.0226.
As for `CC(=O)O[C@H]1C[C@@]2(C)[C@@H](C[C@@H](O)[C@H]3[C@@]4(C)CC[C@@H](O)[C@@H](C)[C@@H]4CC[C@@]32C)/C1=C(\CCC=C(C)C)C(=O)O` [Fusidic acid] + Oc1cc(Cl)ccc1Oc1ccc(Cl)cc1Cl [Triclosan], the Bliss interaction score was 0.0422 with B. subtilis 168, 0.0305 in the experiment on S. aureus Newman, 0.124 in the experiment with S. pneumoniae D39V and -0.0259 with S. aureus DSM 20231.
Turning to `C[C@@H](O)[C@H]1C(=O)N2C(C(=O)O)=C(SCCNC=N)C[C@H]12` [Imipenem] + CC1(C)S[C@@H]2[C@H](NC(=O)Cc3ccccc3)C(=O)N2[C@H]1C(=O)O [PenicillinG], the Bliss interaction score in the experiment on B. subtilis 168 is 0.0587; with S. aureus Newman, -0.198; in the experiment on S. pneumoniae D39V, -0.0999; with S. aureus DSM 20231, -0.0614.
Take `C[C@@H](O)[C@H]1C(=O)N2C(C(=O)O)=C(SCCNC=N)C[C@H]12` [Imipenem] + CCCCCCCCCC(=O)N[C@@H]1[C@H]([C@@H]([C@H](O[C@H]1OC2=C3C=C4C=C2OC5=C(C=C(C=C5)[C@H]([C@H]6C(=O)N[C@@H](C7=C(C(=CC(=C7)O)OC8[C@H]([C@H]([C@@H]([C@H](O8)CO)O)O)O)C9=C(C=CC(=C9)[C@H](C(=O)N6)NC(=O)[C@@H]4NC(=O)[C@@H]1C2=CC(=CC(=C2)OC2=C(C=CC(=C2)[C@H](C(=O)N[C@H](CC2=CC(=C(O3)C=C2)Cl)C(=O)N1)N)O)O)O)C(=O)O)O[C@H]1[C@@H]([C@H]([C@@H]([C@H](O1)CO)O)O)NC(=O)C)Cl)CO)O)O [Teicoplanin]: the Bliss interaction score in the experiment with B. subtilis 168 (main component drawn) was -0.0771; in the experiment on S. aureus Newman (main component drawn) it was 0.0599; with S. pneumoniae D39V (main component drawn) it was -0.102; with S. aureus DSM 20231 (main component drawn), 0.0578.
For the molecule `C[C@@H](O)[C@H]1C(=O)N2C(C(=O)O)=C(SCCNC=N)C[C@H]12` [Imipenem] + CC[C@H]1OC(=O)[C@H](C)C(=O)[C@H](C)[C@@H](O[C@@H]2O[C@H](C)C[C@H](N(C)C)[C@H]2O)[C@](C)(OC)C[C@@H](C)C(=O)[C@H](C)[C@H]2N(CCCCn3cnc(-c4cccnc4)c3)C(=O)O[C@]12C [Telithromycin], the Bliss interaction score in the experiment on B. subtilis 168 is 0.0561; with S. aureus Newman it was -0.0123; with S. pneumoniae D39V, 0.0906; in the experiment on S. aureus DSM 20231, -0.0311.
